Test [1] has as its target T1, human 5-hydroxytryptamine-2C (h5-HT2C) receptor (Homo sapiens, UniProt P28335).
T1 construct: expressed in transfected cells; host or cells: CHO (Chinese Hamster Ovary) cells; membranes
T1 sequence (P28335 33-458): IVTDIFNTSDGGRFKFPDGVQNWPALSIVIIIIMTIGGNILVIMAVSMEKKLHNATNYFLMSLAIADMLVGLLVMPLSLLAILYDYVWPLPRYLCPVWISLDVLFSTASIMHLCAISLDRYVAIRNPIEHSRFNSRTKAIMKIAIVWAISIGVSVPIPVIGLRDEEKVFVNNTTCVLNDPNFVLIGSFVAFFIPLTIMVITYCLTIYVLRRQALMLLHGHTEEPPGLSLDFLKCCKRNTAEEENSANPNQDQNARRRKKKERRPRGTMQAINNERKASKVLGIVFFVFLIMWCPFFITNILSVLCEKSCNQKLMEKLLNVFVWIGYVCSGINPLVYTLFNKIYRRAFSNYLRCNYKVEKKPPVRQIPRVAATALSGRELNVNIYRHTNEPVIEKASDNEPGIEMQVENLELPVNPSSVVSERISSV
Description: [125I]DOI binding to membranes of CHO cells expressing the human 5-HT2C receptor. The note with it: [125I]DOI radioligand, CHO cell membranes, room temperature 60 min; read-out: 5-HT2C Affinity Ki.

A further test has as its target T2, human 5-HT2C receptor (Homo sapiens, UniProt P28335).
T2 sequence (P28335 33-458): T1 sequence (P28335 33-458)
Kind of test: 5-HT2C receptor-stimulated calcium mobilization (FLIPR) in CHO cells.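 For all read-outs here: Fluo-3-AM fluorescence read on FLIPR every 1 s, agonist added after 10 baseline reads, response taken as peak minus lowest raw fluorescence count.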 In kind it is cell-based. As to conditions: for Emax: CHO; for EC50: calcium mobilization, CHO cells stably expressing human 5-HT2C, read-out: 5-HT2C Function EC50.

Setting [2] is: percentage of the response observed with a maximally effective concentration of 5-HT, read-out: 5-HT2C Function Emax (%).

SMILES strings stand for the structures. Where two headings read alike, the source gives them in different places.

What is called Ki is the dissociation constant of the complex between target and ligand, obtained from inhibition or displacement. What is called EC50 is the concentration needed to bring the measured effect to its halfway point. As to `CNCC1Cc2ccc(F)c(-c3ccccc3Cl)c2O1` (racemic) [Example 402, (±)-{[6-fluoro-7-(2-chlorophenyl)-2,3-dihydro-1-benzofuran-2-yl]methyl}methylamine], in test [1], the Ki was 0.24 nM. Besides, the Emax on human 5-HT2C receptor (setting [2]) was 90%. In addition, the EC50 at human 5-HT2C receptor is 0.1 nM.

On to `CNCC1Cc2cccc(-c3ccccc3C)c2O1` (racemic) [Example 406, (±)-[(N-methyl-1-[7-(2-methylphenyl)-2,3-dihydro-1-benzofuran-2-yl]methanamine], for which the Ki in test [1] came to 0.51 nM. Besides, the Emax at human 5-HT2C receptor (setting [2]) was 100%. At human 5-HT2C receptor, the EC50 was determined as 9 nM.

Turning to `CNCC1Cc2cccc(-c3ccccc3Cl)c2O1` (racemic) [Example 409, (±)-[(N-methyl-1-[7-(2-chlorophenyl)-2,3-dihydro-1-benzofuran-2-yl]methanamine], in test [1], the Ki stood at 3 nM. For the same molecule, the Emax on human 5-HT2C receptor (setting [2]) worked out at 90%. Further, the half-maximal effective concentration (EC50) on human 5-HT2C receptor was 22 nM.

Regarding `CNCC1Cc2cccc(-c3ccccc3F)c2O1` (racemic) [Example 412, (±)-[(N-methyl-1-[7-(2-fluorophenyl)-2,3-dihydro-1-benzofuran-2-yl]methanamine], the Ki in test [1] came to 5.3 nM. For the same molecule, the Emax at human 5-HT2C receptor (setting [2]) worked out at 90%. The EC50 on human 5-HT2C receptor was 34 nM.

In the case of `CNCC1Cc2cccc(-c3ccccc3OC)c2O1` (racemic) [Example 413, (±)-[(N-methyl-1-[7-(2-methoxyphenyl)-2,3-dihydro-1-benzofuran-2-yl]methanamine], in test [1], the Ki was determined as 21 nM. Also, on human 5-HT2C receptor (setting [2]), the Emax was 90%. For the same molecule, the EC50 at human 5-HT2C receptor worked out at 8 nM.

Take `CNCC1Cc2cccc(-c3cccc(C)c3)c2O1` (racemic) [Example 414, (±)-[(N-methyl-1-[7-(3-methylphenyl)-2,3-dihydro-1-benzofuran-2-yl]methanamine]: the inhibition constant Ki in test [1] stood at 3.4 nM. Also, the Emax at human 5-HT2C receptor (setting [2]) was 60%. The half-maximal effective concentration (EC50) at human 5-HT2C receptor worked out at 781 nM.

`CNCC1Cc2cccc(-c3cccc(F)c3)c2O1` (racemic) [Example 415, (±)-[(N-methyl-1-[7-(3-fluorophenyl)-2,3-dihydro-1-benzofuran-2-yl]methanamine]: the inhibition constant Ki in test [1] turned out to be 1.1 nM. Further, at human 5-HT2C receptor (setting [2]), the Emax is 70%. Further, the EC50 at human 5-HT2C receptor is 109 nM.

As for `CNCC1Cc2cccc(-c3cccc(Cl)c3)c2O1` (racemic) [Example 416, (±)-[(N-methyl-1-[7-(3-chlorophenyl)-2,3-dihydro-1-benzofuran-2-yl]methanamine], the inhibition constant Ki in test [1] stood at 1.6 nM. Further, the Emax on human 5-HT2C receptor (setting [2]) amounted to 70%. The EC50 on human 5-HT2C receptor was 467 nM.

As for `CNCC1Cc2cccc(-c3cccc(OC)c3)c2O1` (racemic) [Example 417, (±)-[(N-methyl-1-[7-(3-methoxyphenyl)-2,3-dihydro-1-benzofuran-2-yl]methanamine], the Ki in test [1] turned out to be 3.7 nM. Besides, the Emax at human 5-HT2C receptor (setting [2]) was 60%. At human 5-HT2C receptor, the EC50 was determined as 183 nM.

Turning to `CNCC1Cc2cccc(-c3ccc(C)cc3)c2O1` (racemic) [Example 418, (±)-[(N-methyl-1-[7-(4-methylphenyl)-2,3-dihydro-1-benzofuran-2-yl]methanamine], the Ki in test [1] turned out to be 1.1 nM. Also, on human 5-HT2C receptor (setting [2]), the Emax was 80%. Besides, the EC50 on human 5-HT2C receptor was determined as 59 nM.

In the case of `CNCC1Cc2cccc(-c3ccc(F)cc3)c2O1` (racemic) [Example 419, (±)-[(N-methyl-1-[7-(4-fluorophenyl)-2,3-dihydro-1-benzofuran-2-yl]methanamine], the Ki in test [1] came out at 3.8 nM. Besides, at human 5-HT2C receptor (setting [2]), the Emax came out at 80%. Moreover, the EC50 at human 5-HT2C receptor was determined as 1360 nM.

With `CNCC1Cc2cccc(-c3ccc(Cl)cc3)c2O1` (racemic) [Example 420, (±)-[(N-methyl-1-[7-(4-chlorophenyl)-2,3-dihydro-1-benzofuran-2-yl]methanamine], the Ki in test [1] came to 7 nM. Besides, the Emax at human 5-HT2C receptor (setting [2]) stood at 80%. For the same molecule, the concentration for a half-maximal effect (EC50) at human 5-HT2C receptor amounted to 504 nM.

With `CNCC1Cc2cccc(-c3ccc(OC)cc3)c2O1` (racemic) [Example 421, (±)-[(N-methyl-1-[7-(4-methoxyphenyl)-2,3-dihydro-1-benzofuran-2-yl]methanamine], the inhibition constant Ki in test [1] was determined as 1.5 nM. Further, the Emax at human 5-HT2C receptor (setting [2]) was found to be 70%. For the same molecule, the EC50 on human 5-HT2C receptor came to 93 nM.

`CNCC1Cc2cccc(-c3cccc(OC)c3OC)c2O1` (racemic) [Example 423, (±)-[(N-methyl-1-[7-(2,3-dimethoxyphenyl)-2,3-dihydro-1-benzofuran-2-yl]methanamine]: the Ki in test [1] amounted to 6.1 nM. For the same molecule, on human 5-HT2C receptor (setting [2]), the Emax is 70%. The EC50 on human 5-HT2C receptor was 28 nM.

On to `CNCC1Cc2cccc(-c3cc(Cl)ccc3Cl)c2O1` (racemic) [Example 429, (±)-[(N-methyl-1-[7-(2,5-dichlorophenyl)-2,3-dihydro-1-benzofuran-2-yl]methanamine], for which the inhibition constant Ki in test [1] was found to be 2.8 nM. The Emax on human 5-HT2C receptor (setting [2]) was found to be 92%. The 50% effective concentration (EC50) at human 5-HT2C receptor was 16 nM.

As for `CNCC1Cc2cccc(-c3c(Cl)cccc3Cl)c2O1` (racemic) [Example 433, (±)-[(N-methyl-1-[7-(2,6-dichlorophenyl)-2,3-dihydro-1-benzofuran-2-yl]methanamine], in test [1], the inhibition constant Ki was 3.5 nM. For the same molecule, the Emax on human 5-HT2C receptor (setting [2]) stood at 100%. Also, on human 5-HT2C receptor, the EC50 amounted to 1 nM.

As for `CNCC1Cc2cc(F)cc(-c3ccccc3F)c2O1` (racemic) [Example 438, (±)-{[5-fluoro-7-(2-fluorophenyl)-2,3-dihydro-1-benzofuran-2-yl]methyl}methylamine], in test [1], the Ki came to 2.4 nM. In addition, the Emax at human 5-HT2C receptor (setting [2]) is 70%. In addition, the EC50 at human 5-HT2C receptor was found to be 68 nM.

In the case of `CNCC1Cc2cc(F)cc(-c3ccccc3Cl)c2O1` (racemic) [Example 439, (±)-{[5-fluoro-7-(2-chlorophenyl)-2,3-dihydro-1-benzofuran-2-yl]methyl}methylamine], in test [1], the Ki was 0.45 nM. Moreover, on human 5-HT2C receptor (setting [2]), the Emax worked out at 90%. Further, the EC50 at human 5-HT2C receptor was determined as 6 nM.

Take `CNCC1Cc2cc(F)cc(-c3ccccc3C)c2O1` (racemic) [Example 440, (±)-{[5-fluoro-7-(2-methylphenyl)-2,3-dihydro-1-benzofuran-2-yl]methyl}methylamine]: the inhibition constant (Ki) in test [1] stood at 1.2 nM. The Emax at human 5-HT2C receptor (setting [2]) came to 100%. Further, the EC50 at human 5-HT2C receptor was determined as 9 nM.

As to `CNCC1Cc2cc(F)cc(-c3ccccc3OC)c2O1` (racemic) [Example 443, (±)-{[5-fluoro-7-(2-methoxyphenyl)-2,3-dihydro-1-benzofuran-2-yl]methyl}methylamine], the Ki in test [1] was 4.8 nM. On human 5-HT2C receptor (setting [2]), the Emax was 90%. The EC50 on human 5-HT2C receptor stood at 5 nM.

For `CNCC1Cc2cc(F)cc(-c3ccc(Cl)cc3Cl)c2O1` (racemic) [Example 445, (±)-[7-(2,4-dichlorophenyl)-5-fluoro-2,3-dihydro-1-benzofuran-2-yl]methyl}methylamine], in test [1], the Ki stood at 0.48 nM. In addition, the Emax at human 5-HT2C receptor (read-out: 5-HT2C Function Emax (%), percentage of the response observed with a maximally effective concentration of 5-HT) was found to be 90%. In addition, the concentration giving a half-maximal response (EC50) on human 5-HT2C receptor is 1 nM.

With `CNCC1Cc2cc(F)cc(-c3cc(F)ccc3F)c2O1` (racemic) [Example 448, (±)-{[7-(2,5-difluorophenyl)-5-fluoro-2,3-dihydro-1-benzofuran-2-yl]methyl}methylamine], the inhibitory constant (Ki) in test [1] was 7 nM. The Emax on human 5-HT2C receptor (setting [2]) is 70%. Also, the half-maximal effective concentration (EC50) on human 5-HT2C receptor turned out to be 78 nM.

Take `CNCC1Cc2cc(F)cc(-c3cc(Cl)ccc3Cl)c2O1` (racemic) [Example 449, (±)-{[7-(2,5-dichlorophenyl)-5-fluoro-2,3-dihydro-1-benzofuran-2-yl]methyl}methylamine]: the Ki in test [1] was 1 nM. For the same molecule, at human 5-HT2C receptor (setting [2]), the Emax is 90%. Also, the concentration for a half-maximal effect (EC50) at human 5-HT2C receptor is 2 nM.

Values taken from US7435837B2, “Dihydrobenzofuranyl alkanamine derivatives and methods for using same” (Wyeth, priority 2003, dated 2008).
